# Laboratory results reported in PMC5553892, “A fourth subtype of retinoic acid receptor-related orphan receptors is activated by oxidized all-trans retinoic acid in medaka (Oryzias latipes)” (Zoological Letters, 2017).
# Columns and labels:
# Assay type in all cases: cell-based
# [1] = molecular target: T1, RORd1 (Oryzias latipes, UniProt H2LFF5); test: Gal4-RORd1 LBD luciferase reporter assay in stable HEK293 cells (agonist)
# T1 construct: gene rorca
# T1 sequence (H2LFF5 98-473): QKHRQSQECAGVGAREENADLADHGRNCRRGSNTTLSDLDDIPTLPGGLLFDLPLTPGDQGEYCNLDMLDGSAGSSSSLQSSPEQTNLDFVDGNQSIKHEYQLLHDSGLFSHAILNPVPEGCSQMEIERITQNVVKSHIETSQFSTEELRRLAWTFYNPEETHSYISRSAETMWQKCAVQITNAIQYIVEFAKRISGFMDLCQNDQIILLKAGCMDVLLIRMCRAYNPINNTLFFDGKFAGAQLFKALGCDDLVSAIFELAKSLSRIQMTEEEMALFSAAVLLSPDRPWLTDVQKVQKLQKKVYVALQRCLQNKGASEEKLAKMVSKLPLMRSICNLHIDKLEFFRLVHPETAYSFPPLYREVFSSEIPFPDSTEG
# [2] = molecular target: T1, RORd1; test: Gal4-RORd1 LBD luciferase reporter assay in stable HEK293 cells (weak agonist, […], EC50 not calculable)
# [3] = molecular target: T1, RORd1; test: as above; remark: listed apart in the source
Compound,EC50 [1] [nM],other results
"CC1=C(/C=C/C(C)=C/C=C/C(C)=C/C(=O)O)C(C)(C)CCC1=O [4 K–ATRA, all-trans 4-ketoretinoic acid]",737 ± 47.3,
"CC1=C(/C=C/C(C)=C/C=C/C(C)=C/C(=O)O)C(C)(C)CCC1O (stereo not drawn) [4OH-ATRA, all-trans 4-hydroxyretinoic acid]",539 ± 97.3,
"CC(/C=C/C12OC1(C)CCCC2(C)C)=C\C=C\C(C)=C\C(=O)O (stereo not drawn) [5,6E–ATRA, all-trans 5,6-epoxyretinoic acid]",,EC50 [2]: > 10 µM
"CC1=C(/C=C/C(C)=C/C=C/C(C)=C/C(=O)O)C(C)(C)CCC1 [ATRA, all-trans retinoic acid]",,EC50 [3]: > 10 µM
